According to ChEMBL document CHEMBL1201862, “PubChem BioAssay data set” (2004):
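48-hour exposure; five concentrations; linearly interpolated endpoints. GI50 = concentration required for 50% inhibition of growth.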 The source made the active and inactive calls. No stated cut-off is given here; in the data, active = GI50 up to about 1.1 µM and inactive = higher.

Legend:
Assay in all cases: growth of human tumour cells (NCI), 48 h
DLD-1 = tested on: DLD-1
NCI-H23 = tested on: NCI-H23
Malme-3M = tested on: Malme-3M
U-251 = tested on: U-251
K562 = tested on: K562
HOP-62 = tested on: HOP-62
HT-29 = tested on: HT-29
SNB-75 = tested on: SNB-75
NCI-H522 = tested on: NCI-H522
A549 = tested on: A549
CAKI-1 = tested on: CAKI-1
KM-20L2 = tested on: KM-20L2
CCRF-CEM = tested on: CCRF-CEM
M14 = tested on: M14
NCI-H226 = tested on: NCI-H226
HCC 2998 = tested on: HCC 2998
SN12C = tested on: SN12C
SF-268 = tested on: SF-268
SR = tested on: SR
DMS-273 = tested on: DMS-273
SF-295 = tested on: SF-295
IGROV-1 = tested on: IGROV-1
TK-10 = tested on: TK-10
HOP-92 = tested on: HOP-92
SK-MEL-2 = tested on: SK-MEL-2
DMS-114 = tested on: DMS-114
SW-620 = tested on: SW-620
M19-MEL = tested on: M19-MEL
HCT-116 = tested on: HCT-116
A498 = tested on: A498
COLO 205 = tested on: COLO 205
OVCAR-4 = tested on: OVCAR-4
UACC-257 = tested on: UACC-257
SK-OV-3 = tested on: SK-OV-3
SK-MEL-5 = tested on: SK-MEL-5
EKVX = tested on: EKVX
RXF 631 = tested on: RXF 631
HL-60 = tested on: HL-60
786-0 = tested on: 786-0
UACC-62 = tested on: UACC-62
SNB-19 = tested on: SNB-19
LXFL 529 = tested on: LXFL 529
RPMI-8226 = tested on: RPMI-8226
SNB-78 = tested on: SNB-78
MOLT-4 = tested on: MOLT-4
UO-31 = tested on: UO-31
HOP-18 = tested on: HOP-18
SK-MEL-28 = tested on: SK-MEL-28
OVCAR-3 = tested on: OVCAR-3
LOX IMVI = tested on: LOX IMVI
OVCAR-5 = tested on: OVCAR-5
HCT-15 = tested on: HCT-15
KM12 = tested on: KM12
ACHN = tested on: ACHN
RXF 393 = tested on: RXF 393
NCI-H460 = tested on: NCI-H460
SF-539 = tested on: SF-539
XF498 = tested on: XF498
OVCAR-8 = tested on: OVCAR-8

In the case of `Cc1ccc(NC(=O)/C(Cl)=C(/Cl)C(=O)O)cc1`, the GI50 (DLD-1) is reported as 16.4 µM (inactive), the GI50 (NCI-H23) is reported as 17.5 µM (inactive) and the GI50 (Malme-3M) is reported as 15.6 µM (inactive). The GI50 (U-251) was 17.1 µM (inactive), the GI50 (K562) was 3.57 µM (inactive) and the GI50 (HOP-62) was 71.4 µM (inactive). For the same molecule, the GI50 (HT-29) was 18.3 µM (inactive), the GI50 (SNB-75) was 17.7 µM (inactive) and the GI50 (NCI-H522) was 1.9 µM (inactive). For the same molecule, the GI50 (A549) was 69.8 µM (inactive), the GI50 (CAKI-1) was 17.3 µM (inactive) and the GI50 (KM-20L2) was 22.4 µM (inactive). The GI50 (CCRF-CEM) was 2.12 µM (inactive), the GI50 (M14) was 15.2 µM (inactive) and the GI50 (NCI-H226) was 31.8 µM (inactive). For the same molecule, the GI50 (HCC 2998) was 19.7 µM (inactive), the GI50 (SN12C) was 18.5 µM (inactive) and the GI50 (SF-268) was 23 µM (inactive). The GI50 (SR) was 18.2 µM (inactive), the GI50 (DMS-273) was 22.1 µM (inactive) and the GI50 (SF-295) was 30.2 µM (inactive). For the same molecule, the GI50 (IGROV-1) was 29.6 µM (inactive), the GI50 (TK-10) was 18.7 µM (inactive) and the GI50 (HOP-92) was 18.2 µM (inactive). For the same molecule, the GI50 (SK-MEL-2) was 14.6 µM (inactive), the GI50 (DMS-114) was 20 µM (inactive) and the GI50 (SW-620) was 15.1 µM (inactive). For the same molecule, the GI50 (M19-MEL) was 16 µM (inactive), the GI50 (HCT-116) was 15 µM (inactive) and the GI50 (A498) was 82.2 µM (inactive). The GI50 (COLO 205) was 6.93 µM (inactive), the GI50 (OVCAR-4) was 18.2 µM (inactive) and the GI50 (UACC-257) was 22 µM (inactive). For the same molecule, the GI50 (SK-OV-3) was 18.8 µM (inactive), the GI50 (SK-MEL-5) was 28.4 µM (inactive) and the GI50 (EKVX) was 16.1 µM (inactive). For the same molecule, the GI50 (RXF 631) was 24.4 µM (inactive), the GI50 (HL-60) was 1.64 µM (inactive) and the GI50 (786-0) was 17.3 µM (inactive). For the same molecule, the GI50 (UACC-62) was 15.9 µM (inactive), the GI50 (SNB-19) was > 100 µM (inactive) and the GI50 (LXFL 529) was 11.9 µM (inactive). The GI50 (RPMI-8226) was 14.8 µM (inactive), the GI50 (SNB-78) was 30.1 µM (inactive) and the GI50 (MOLT-4) was 11.5 µM (inactive). The GI50 (UO-31) was 17.8 µM (inactive), the GI50 (HOP-18) was 19.1 µM (inactive) and the GI50 (SK-MEL-28) was 18.9 µM (inactive). For the same molecule, the GI50 (OVCAR-3) was 18.1 µM (inactive), the GI50 (LOX IMVI) was 17.1 µM (inactive) and the GI50 (OVCAR-5) was 21 µM (inactive). For the same molecule, the GI50 (HCT-15) was 15.6 µM, the GI50 (KM12) was 18.7 µM (inactive) and the GI50 (ACHN) was 16.5 µM (inactive). The GI50 (RXF 393) was 31 µM (inactive) and the GI50 (NCI-H460) was > 100 µM (inactive).
For `Cn1c(=O)ccc2cc(C(=O)c3ccccc3)ccc21`, the GI50 (DLD-1) was > 100 µM (inactive), the GI50 (NCI-H23) was 55 µM (inactive) and the GI50 (Malme-3M) was > 100 µM (inactive). The GI50 (U-251) was 84.9 µM (inactive), the GI50 (K562) was 44.1 µM (inactive) and the GI50 (HOP-62) was > 100 µM (inactive). The GI50 (HT-29) was 46 µM (inactive), the GI50 (SNB-75) was 12.3 µM (inactive) and the GI50 (NCI-H522) was 20.4 µM (inactive). For the same molecule, the GI50 (A549) was 71.1 µM (inactive), the GI50 (CAKI-1) was 39.4 µM (inactive) and the GI50 (KM-20L2) was 73.5 µM (inactive). For the same molecule, the GI50 (SF-539) was 42.3 µM (inactive), the GI50 (CCRF-CEM) was 69.7 µM (inactive) and the GI50 (M14) was > 100 µM (inactive). The GI50 (NCI-H226) was 21.2 µM (inactive), the GI50 (XF498) was 16.7 µM (inactive) and the GI50 (HCC 2998) was > 100 µM (inactive). The GI50 (SN12C) was 46.6 µM (inactive), the GI50 (SF-268) was 76.6 µM (inactive) and the GI50 (DMS-273) was 35.3 µM (inactive). For the same molecule, the GI50 (SF-295) was 79.3 µM (inactive), the GI50 (IGROV-1) was 24.7 µM (inactive) and the GI50 (TK-10) was 35.2 µM (inactive). The GI50 (HOP-92) was 34.8 µM (inactive), the GI50 (SK-MEL-2) was > 100 µM (inactive) and the GI50 (DMS-114) was 22.1 µM (inactive). The GI50 (SW-620) was > 100 µM (inactive), the GI50 (M19-MEL) was 55.3 µM (inactive) and the GI50 (HCT-116) was 73.5 µM (inactive). For the same molecule, the GI50 (A498) was 32.6 µM (inactive), the GI50 (COLO 205) was > 100 µM (inactive) and the GI50 (OVCAR-8) was 58.6 µM (inactive). For the same molecule, the GI50 (OVCAR-4) was 46.9 µM (inactive), the GI50 (SK-OV-3) was > 100 µM (inactive) and the GI50 (SK-MEL-5) was 22.8 µM (inactive). For the same molecule, the GI50 (EKVX) was 34.2 µM (inactive), the GI50 (RXF 631) was 64.3 µM (inactive) and the GI50 (HL-60) was 23.6 µM (inactive). For the same molecule, the GI50 (786-0) was 83.2 µM (inactive), the GI50 (UACC-62) was 14.6 µM (inactive) and the GI50 (SNB-19) was 68.1 µM (inactive). The GI50 (LXFL 529) was 45.8 µM (inactive), the GI50 (RPMI-8226) was 47.5 µM (inactive) and the GI50 (MOLT-4) was 69.7 µM (inactive). The GI50 (HOP-18) was 36.6 µM (inactive), the GI50 (SK-MEL-28) was > 100 µM (inactive) and the GI50 (OVCAR-3) was 44.4 µM (inactive). For the same molecule, the GI50 (LOX IMVI) was 57.3 µM (inactive), the GI50 (OVCAR-5) was > 100 µM (inactive) and the GI50 (HCT-15) was 53.3 µM. For the same molecule, the GI50 (KM12) was > 100 µM (inactive), the GI50 (ACHN) was 36.8 µM (inactive) and the GI50 (NCI-H460) was > 100 µM (inactive).
`CCCCCCCCCC(=O)N[C@H]1CCc2cc(OC)c(OC)c(OC)c2-c2ccc(SC)c(=O)cc21` was tested, and the GI50 (DLD-1) was 0.0352 µM (active), the GI50 (NCI-H23) was 0.0216 µM (active) and the GI50 (Malme-3M) was 0.0226 µM (active). For the same molecule, the GI50 (U-251) was 0.0274 µM (active), the GI50 (K562) was 0.0395 µM (active) and the GI50 (HOP-62) was 0.0478 µM (active). For the same molecule, the GI50 (HT-29) was 0.0261 µM (active), the GI50 (SNB-75) was 0.0395 µM (active) and the GI50 (NCI-H522) was < 0.01 µM (active). The GI50 (A549) was 0.0376 µM (active), the GI50 (CAKI-1) was 0.056 µM (active) and the GI50 (KM-20L2) was 0.0198 µM (active). The GI50 (SF-539) was 0.0224 µM (active), the GI50 (CCRF-CEM) was 0.0426 µM (active) and the GI50 (M14) was 0.0226 µM (active). The GI50 (NCI-H226) was 0.0231 µM (active), the GI50 (XF498) was 0.022 µM (active) and the GI50 (HCC 2998) was 0.0247 µM (active). The GI50 (SN12C) was 0.0365 µM (active), the GI50 (SF-268) was 0.0223 µM (active) and the GI50 (SR) was 0.0328 µM (active). For the same molecule, the GI50 (DMS-273) was < 0.01 µM (active), the GI50 (SF-295) was 0.0274 µM (active) and the GI50 (IGROV-1) was 0.0387 µM (active). For the same molecule, the GI50 (TK-10) was 0.759 µM (active), the GI50 (HOP-92) was 0.0168 µM (active) and the GI50 (DMS-114) was 0.0188 µM (active). The GI50 (SW-620) was 0.0316 µM (active), the GI50 (M19-MEL) was 0.0445 µM (active) and the GI50 (HCT-116) was 0.0209 µM (active). The GI50 (A498) was 0.0255 µM (active), the GI50 (COLO 205) was 0.00345 µM (active) and the GI50 (OVCAR-8) was 0.0338 µM (active). The GI50 (OVCAR-4) was 0.408 µM (active), the GI50 (UACC-257) was 0.0417 µM (active) and the GI50 (SK-OV-3) was 0.0238 µM (active). For the same molecule, the GI50 (SK-MEL-5) was 0.024 µM (active), the GI50 (EKVX) was 0.0527 µM (active) and the GI50 (RXF 631) was 0.0197 µM (active). The GI50 (HL-60) was 0.034 µM (active), the GI50 (786-0) was 0.0393 µM (active) and the GI50 (UACC-62) was 0.0353 µM (active). For the same molecule, the GI50 (SNB-19) was 0.0329 µM (active), the GI50 (LXFL 529) was 0.0297 µM (active) and the GI50 (RPMI-8226) was 0.0422 µM (active). For the same molecule, the GI50 (SNB-78) was 0.0405 µM (active), the GI50 (MOLT-4) was 0.0392 µM (active) and the GI50 (UO-31) was 0.231 µM (active). For the same molecule, the GI50 (OVCAR-3) was 0.0226 µM (active), the GI50 (LOX IMVI) was 0.043 µM (active) and the GI50 (OVCAR-5) was 29.7 µM (inactive). The GI50 (HCT-15) was 0.0313 µM, the GI50 (KM12) was 0.0209 µM (active) and the GI50 (ACHN) was 0.0507 µM (active). The GI50 (RXF 393) was 0.0224 µM (active) and the GI50 (NCI-H460) was 0.0347 µM (active).
